Measured values taken from ChEMBL document CHEMBL2062419, “Synthesis and antiviral activities of hexadecyloxypropyl prodrugs of acyclic nucleoside phosphonates containing guanine or hypoxanthine and a (S)-HPMP or PEE acyclic moiety” (Eur J Med Chem, 2012).
Activity calls are given as the source filed them. No cut-off for these calls is given here.

Columns and labels:
HEL = assay: Cytotoxicity against HEL cells assessed as effect on cell growth incubated for 3 days by Coulter counter assay; format: cell-based; conditions: human, 72 h
Human alphaherpesvirus 1 [1] = assay: Antiviral activity against thymidine kinase negative and ACV resistant HSV1 KOS infected in HEL cells by viral CPE assay; format: functional, organism-based; conditions: Human alphaherpesvirus 1, KOS
Human alphaherpesvirus 1 [2] = assay: Antiviral activity against HSV1 KOS infected in HEL cells by viral CPE assay; format: functional, organism-based; conditions: Human alphaherpesvirus 1, KOS
[3] = Cytotoxicity against HEL cells assessed as effect on cell morphology incubated for 3 days by microscopy; format: cell-based; conditions: human
Human alphaherpesvirus 2 = assay: Antiviral activity against HSV2 G infected in HEL cells by viral CPE assay; format: functional, organism-based; conditions: Human alphaherpesvirus 2, strain G
Vaccinia virus = assay: Antiviral activity against Vaccinia virus Lederie infected in HEL cells by viral CPE assay; format: functional, organism-based; conditions: Orthopoxvirus vaccinia
[4] = tested on: Respiratory syncytial virus; assay: Antiviral activity against Respiratory syncytial virus Long by viral CPE assay; format: functional, organism-based
[5] = tested on: Mammalian orthoreovirus 1; assay: Antiviral activity against Reovirus 1 by viral CPE assay; format: functional, organism-based
Human alphaherpesvirus 3 [6] = assay: Antiviral activity against thymidine kinase negative VZV 07/01 infected in HEL cells by plaque formation assay; format: functional, organism-based; conditions: Human alphaherpesvirus 3, 07/01, HEL
Human respirovirus 3 = assay: Antiviral activity against Human parainfluenza virus 3 by viral CPE assay; format: functional, organism-based
[7] = tested on: Human immunodeficiency virus 1; assay: Antiviral activity against HIV1 3B infected in human CEM cells assessed as reduction in virus-induced CEM giant cell formation incubated for 4 days at 37 degC by microscopy; format: functional, organism-based; conditions: CCRF-CEM
Sindbis virus = assay: Antiviral activity against Sindbis virus by viral CPE assay; format: functional, organism-based
Human betaherpesvirus 5 [8] = assay: Antiviral activity against HCMV Davis infected in HEL cells by viral CPE assay; format: functional, organism-based; conditions: Human betaherpesvirus 5, Davis
Felid alphaherpesvirus 1 = assay: Antiviral activity against Feline herpesvirus infected in CRFK cells by viral CPE assay; format: functional, organism-based; conditions: Felid alphaherpesvirus 1, CRFK
Human alphaherpesvirus 3 [9] = assay: Antiviral activity against thymidine kinase positive VZV OKa infected in HEL cells by plaque formation assay; format: functional, cell-based, Human herpesvirus 3 strain Oka vaccine; conditions: Human alphaherpesvirus 3, OKa
Punta Toro virus = assay: Antiviral activity against Punta Toro virus by viral CPE assay; format: functional, organism-based
Coxsackievirus B4 = assay: Antiviral activity against Human coxsackievirus B4 by viral CPE assay; format: functional, organism-based
[10] = tested on: Human immunodeficiency virus 2; assay: Antiviral activity against HIV2 ROD infected in human CEM cells assessed as reduction in virus-induced CEM giant cell formation incubated for 4 days at 37 degC by microscopy; format: functional, organism-based; conditions: ISOLATE ROD, CCRF-CEM
Human betaherpesvirus 5 [11] = assay: Antiviral activity against HCMV AD169 infected in HEL cells by viral CPE assay; format: functional, organism-based; conditions: Human betaherpesvirus 5, AD169, HEL
[12] = tested on: Vesicular stomatitis virus; assay: Antiviral activity against VSV by viral CPE assay; format: functional, organism-based
[13] = Selectivity index, ratio of cytotoxic CC50 for HEL cells to EC50 for VZV 07/01
[14] = Selectivity index, ratio of cytotoxic CC50 for HEL cells to EC50 for Vaccinia virus Lederie; format: toxicity, cell-based; conditions: human, read-out: Ratio CC50/EC50
[15] = Selectivity index, ratio of cytotoxic CC50 for HEL cells to EC50 for VZV Oka
[16] = Selectivity index, ratio of cytotoxic CC50 for HEL cells to EC50 for HCMV AD169
[17] = Selectivity index, ratio of cytotoxic CC50 for HEL cells to EC50 for HSV2 G
[18] = Selectivity index, ratio of cytotoxic CC50 for HEL cells to EC50 for VZV YS
Human alphaherpesvirus 3 [19] = assay: Antiviral activity against thymidine kinase positive VZV YS infected in HEL cells by plaque formation assay; format: functional, organism-based; conditions: Human alphaherpesvirus 3, YS
[20] = Selectivity index, ratio of cytotoxic CC50 for HEL cells to EC50 for HCMV Davis
[21] = Selectivity index, ratio of cytotoxic CC50 for HEL cells to EC50 for ACV resistant HSV1 KOS
[22] = Selectivity index, ratio of cytotoxic CC50 for HEL cells to EC50 for HSV1 KOS

| Structure (SMILES) | CC50 (HEL) [µM] | EC50 (Human alphaherpesvirus 1 [1]) [µM] | EC50 (Human alphaherpesvirus 1 [2]) [µM] | MCC at 72 h [3] [µM] | EC50 (Human alphaherpesvirus 2) [µM] | EC50 (Vaccinia virus) [µM] | Activity [4] | Activity [5] | EC50 (Human alphaherpesvirus 3 [6]) [µM] | Activity (Human respirovirus 3) | Activity [7] | Activity (Sindbis virus) | EC50 (Human betaherpesvirus 5 [8]) [µM] | EC50 (Felid alphaherpesvirus 1) [µM] | EC50 (Human alphaherpesvirus 3 [9]) [µM] | Activity (Punta Toro virus) | Activity (Coxsackievirus B4) | Activity [10] | EC50 (Human betaherpesvirus 5 [11]) [µM] | Activity [12] | other results |
| --- | --- | --- | --- | --- | --- | --- | --- | --- | --- | --- | --- | --- | --- | --- | --- | --- | --- | --- | --- | --- | --- |
| Nc1nc2c(ncn2COCCO)c(=O)[nH]1 [ACYCLOVIR] | 918 | ≥ 212 | 0.53 | > 444 | 0.38 | > 1000 |  |  |  |  |  |  |  |  |  |  |  |  |  |  |  |
| CCCCCCCCCCCCCCCCOCCCOP(=O)(CCOCCn1cnc2c(=O)[nH]c(N)nc21)OCCCOCCCCCCCCCCCCCCCC | > 115 | > 115 | > 115 | ≥ 23 | > 115 | > 115 | inactive | inactive | > 23 | inactive | inactive | inactive | > 23 | > 115 | > 23 | inactive | inactive | inactive | > 23 | inactive |  |
| CCCCCCCCCCCCCCCCOCCCOP(=O)(O)CCOCCn1cnc2c(=O)[nH]c(N)nc21 | 26 | 2.8 | 1.37 | ≥ 34 | 1.9 | ≥ 34 | inactive | inactive | 0.3 | inactive | inactive | inactive | 0.06 | > 171 | 0.14 | inactive | inactive | inactive | 0.13 | inactive | Ratio CC50/EC50 [13]: 87; selectivity ratio [14]: < 1; Ratio CC50/EC50 [15]: 186; Ratio CC50/EC50 [16]: 200; Ratio CC50/EC50 [17]: 14; Ratio CC50/EC50 [18]: 137; EC50 (Human alphaherpesvirus 3 [19]): 0.19 µM; Ratio CC50/EC50 [20]: 433; Ratio CC50/EC50 [21]: 9; Ratio CC50/EC50 [22]: 19 |
| CCCCCCCCCCCCCCCCOCCCOP(=O)(O)CCOCCn1cnc2c(=O)[nH]cnc21 | 78 | > 35 | > 35 | 175 | > 35 | > 35 | inactive | inactive | > 35 | inactive | inactive | inactive | > 35 | > 35 | > 35 | inactive | inactive | inactive | > 35 | inactive |  |
| CCCCCCCCCCCCCCCCOCCCOP(=O)(O)CO[C@H](CO)Cn1cnc2c(=O)[nH]cnc21 | 66 | > 6.8 | > 6.8 | ≥ 34 | > 6.8 | > 6.8 | inactive | inactive |  | inactive | inactive | inactive | 15.2 | > 34 | > 6.8 | inactive | inactive | inactive | > 34 | inactive |  |
| Nc1nc(O)c2ncn(COC(CO)CO)c2n1 [GANCICLOVIR] | 231 |  |  | > 394 | 0.029 | ≥ 93 |  |  |  |  |  |  |  | 1.15 |  |  |  |  |  |  |  |
| CCCCCCCCCCCCCCCCOCCCOP(=O)(CCOCCn1cnc2c(=O)[nH]cnc21)OCCCOCCCCCCCCCCCCCCCC | 117 | > 117 | > 117 | ≥ 117 | > 117 | > 117 | inactive | inactive | > 23.4 | inactive | inactive | inactive | > 23.4 | > 23.4 | > 23.4 | inactive | inactive | inactive | > 23.4 | inactive |  |
| Nc1ccn(C[C@@H](CO)OCP(=O)(O)O)c(=O)n1 [CIDOFOVIR] | 241 | 1.75 | 0.93 | > 317 |  | 14 |  |  |  |  |  |  |  |  |  |  |  |  | 1.37 |  |  |
| CCCCCCCCCCCCCCCCOCCCOP(=O)(CO[C@H](CO)Cn1cnc2c(=O)[nH]cnc21)OCCCOCCCCCCCCCCCCCCCC | > 115 | > 115 | > 115 | ≥ 23 | > 115 | > 115 | inactive | inactive | > 4.6 | inactive | inactive | inactive | > 23 | > 115 | > 23 | inactive | inactive | inactive | > 23 | inactive |  |
| CCCCCCCCCCCCCCCCOCCCOP1(=O)CO[C@@H](Cn2cnc3c(=O)[nH]cnc32)CO1 (mixture of isomers) | > 176 | > 7 | > 7 | ≥ 7 | > 7 | > 7 | inactive | inactive | > 1.4 | inactive | inactive | inactive | > 7 | > 176 | > 1.4 | inactive | inactive | inactive | > 7 | inactive |  |
